# Data published in US20150368620A1, “METHOD OF DETACHING ADHERENT CELLS FOR FLOW CYTOMETRY” (KING ABDULLAH UNIVERSITY OF SCIENCE AND TECHNOLOGY, priority 2013, published 2015).
# Tests used:
# BJ, MCF-7 and HeLa cells = settings: untreated cells lifted with EDTA, APOPercentage staining
# Experimental: (§1) In one method, five thousand cells were plated per well in 45 μl of media in 96-well plate. The cells were shaken at 750 rpm with an Orbital shaker for 20 seconds and allowed to settle for 16-24 hrs in 5% CO2 incubator at 37° C. A desired concentration of drug was added to cells in a volume of […] to make the final volume per well up to 50 μl. The cells and drug were mixed at 750 rpm with an Orbital shaker for 20 seconds and incubated again for desired period of time. Twelve microliters of 15 mM EDTA pH 6.14 (upto 20 mM can be added depending on the cell line) were added per well, mixed at 750 rpm with an Orbital shaker for 20 seconds and incubated at 37° C. for 45 min to 1 hour (until cells lift). Fifteen microliters of media containing 1 μl APOPercentage dye was added to the cells and incubated for 15-20 min at 37° C. The cells were analyzed on flow cytometer setting a threshold for FSC-H of 80,000, cytometer speed at medium (2 μl/sec), peristaltic pump speed at 23 rpm, shaking on 1800 rpm, gating on 2D plot of FSC vs SSC and a 1D plot measuring FL2-H/FL3-H on the X axis. The HTFC system was used.
# HeLa cells [1] = settings: 12 μl of 15 mM EDTA pH 6.14 added to media, 37° C., 96-well
# Experimental: as §1
# (§2) The following steps can be used to measure apoptosis using APOPercentage Assay in adherent cells. 5000 cells per well were plated in 45 μl of media in 96-well plate, shaken at 750 rpm with an Orbital shaker for 20 seconds, and allowed to settle 16-24 hours (h). Desired concentration of drug was added to cells in a volume of […] to make the final volume per well up to 50 μl, was shaken at 750 rpm with an Orbital shaker for 20 seconds, and was then incubated for desired period of time. 12 μl of 15 mM EDTA pH 6.14 per well was added (upto 20 mM can be added depending on the cell line). Shake at 750 rpm with an Orbital shaker for 20 seconds and incubate at 37° C. for 15 minutes (min) to 1 h (until cells lift).
# BJ cells = settings: 12 μl of 15 mM EDTA pH 6.14 added to media, 37° C., 96-well
# Experimental: as §1, §2
# DU145 cells [2] = settings: 12 μl of 15 mM EDTA pH 6.14 added to media, 37° C., 96-well
# Experimental: as §1, §2
# MCF-7 cells [3] = settings: 12 μl of 15 mM EDTA pH 6.14 added to media, 37° C., 96-well
# Experimental: as §1, §2
# HT1080 cells [4] = settings: 12 μl of 15 mM EDTA pH 6.14 added to media, 37° C., 96-well
# Experimental: as §1, §2
# BT20 cells [5] = settings: 12 μl of 15 mM EDTA pH 6.14 added to media, 37° C., 96-well
# Experimental: 5000 cells per well were plated in 45 μl of media in 96-well plate, shaken at 750 rpm with an Orbital shaker for 20 seconds, and allowed to settle 16-24 hours (h). Desired concentration of drug was added to cells in a volume of […] to make the final volume per well up to 50 μl, was shaken at 750 rpm with an Orbital shaker for 20 seconds, and was then incubated for desired period of time. […] Shake at 750 rpm with an Orbital shaker for 20 seconds and incubate at 37° C. for 15 minutes (min) to 1 h (until cells lift).
# MCF-7 cells [6] = test: Reactive oxygen species (ROS) DCFDA assay by flow cytometry; type: cell-based; settings: 10 μM DCFDA, 2-10 mM H2O2 positive control, Accuri C6 HTFC, 96-well
# Experimental: (§3) Add 15 μl of serum free media and incubate for 5-10 min.
# In FIGS. […] Data was analyzed using FlowJo version 7.6.5 software. Cells were seeded at a density of 5×10^3 cells per well in a 96-well plate, the following day cells were left untreated (blue peak) or treated with 10 mM H2O2 as a positive control (red peak) for ROS. MCF-7 and HeLa cells were stained with a final concentration of 10 μM DCFDA dye immediately after adding H2O2 (A and B). Cells were lifted with EDTA and analyzed by flow cytometry.
# MCF-7 cells [7] = test: APOPercentage apoptosis assay by flow cytometry; type: cell-based; settings: APOPercentage dye, 2.5 mM H2O2 positive control, Accuri C6 HTFC, 96-well
# Experimental: (§4) The HTFC system was used.
# Untreated and treated MCF-7 cells were analyzed by flow cytometry on an Accuri C6 flow cytometer to determine the percentage of cells undergoing apoptosis (FIG. 3). Cells were seeded at a density of 5×10^3 cells per well in 96 well plate. Cells treated with 2.5 mM H2O2 for 30 minutes or 62 μl EDTA pH 6.14 for 15-30 min. added to cells after removing media were used as a positive control for apoptosis. The cells were lifted and stained with 1 μl APOPercentage dye. The cells were then analyzed by flow cytometry. […] FIG. 3C is a bar graph showing the percentage of non-apoptotic and apoptotic cells within the untreated or treated population of cells.
# (§5) Add 15 μl of serum free media containing 1 μl APOPercentage dye and incubate for 15-20 min at 37° C. […] 2.5 mM H2O2 is used as a positive control.
# In FIG. 6, MCF-7 Cells untreated (blue, left) or treated (red, right) were analyzed by flow cytometry on a BD LSRFortessa HTS flow cytometer to determine the percentage of cells undergoing apoptosis. Data was analyzed using FlowJo version 7.6.5 software. […] Cells were lifted with EDTA and stained with 1 μl APOPercentage and analyzed by flow cytometry. 1D Histogram of untreated (blue) and treated (red) cells measuring fluorescence in the PE-A channel and applying gates to delineate Non-apoptotic (blue) and Apoptotic (red) cells.
# DU145 cells [8] = test: APOPercentage apoptosis assay by flow cytometry; type: cell-based; settings: APOPercentage dye, 2.5 mM H2O2 positive control, Accuri C6 HTFC, 96-well
# Experimental: as §1
# (§6) The following steps can be used to measure apoptosis using APOPercentage Assay in adherent cells. 5000 cells per well were plated in 45 μl of media in 96-well plate, shaken at 750 rpm with an Orbital shaker for 20 seconds, and allowed to settle 16-24 hours (h). […]
# HT1080 cells [9] = test: APOPercentage apoptosis assay by flow cytometry; type: cell-based; settings: APOPercentage dye, 2.5 mM H2O2 positive control, Accuri C6 HTFC, 96-well
# Experimental: as §1, §6
# HeLa cells [10] = test: Mitochondrial membrane potential (MMP) JC-1 assay by flow cytometry; type: cell-based; settings: 2 μM JC-1, 100 mM H2O2 positive control, Accuri C6 HTFC, 96-well
# Experimental: (§7) The following can be the steps used to determining MMP by Flow Cytometry in adherent cells. […] Add 15 μl of serum free media containing JC-1 dye so that the final concentration is 2 μM in a total volume of 77 μl and incubate for 1-2 h at 37° C. […] 100 mM H2O2 can be used as a positive control.
# BT20 cells [11] = test: Reactive oxygen species (ROS) DCFDA assay by flow cytometry; type: cell-based; settings: 10 μM DCFDA, 2-10 mM H2O2 positive control, Accuri C6 HTFC, 96-well
# Experimental: as §3
# HeLa cells [12] = test: as above; type: cell-based; settings: 10 μM DCFDA, 10 mM H2O2 positive control, Accuri C6 HTFC, 96-well
# Experimental: as §3
# In FIG. 9, HeLa and MCF-7 Cells were analyzed by flow cytometry on an Accuri C6 to determine the level of ROS in cells. Cells were seeded at a density of 5×10^3 cells per well in a 96-well plate, the following day cells were treated with 10 mM H2O2 as a positive control for ROS and test compounds. HeLa cells were stained with a final concentration of 10 μM DCFDA dye immediately after adding H2O2 (A). After incubation cells were lifted with EDTA and analyzed by flow cytometry. Separation of untreated (yellow) and treated (purple) cells based on FL-1-H profile (A). MCF-7 cells were treated with Plumbagin and its derivative Crotonate Plumbagin for 1 h (B). A final 10 μM DCFDA was added simultaneously with Plumbagin and its derivative to cells. Following incubation with drug cells were lifted with EDTA and analyzed by flow cytometry.
# In FIGS. 10A-B, MCF-7 and HeLa Cells were analyzed by flow cytometry on a BD LSRFortessa HTS to determine the level of ROS in cells. Data was analyzed using FlowJo version 7.6.5 software. Cells were seeded at a density of 5×10^3 cells per well in a 96-well plate, the following day cells were left untreated (blue peak) or treated with 10 mM H2O2 as a positive control (red peak) for ROS. […] Cells were lifted with EDTA and analyzed by flow cytometry.
# BJ fibroblast cells = test: APOPercentage apoptosis assay by flow cytometry; type: cell-based; settings: APOPercentage dye, 2.5 mM H2O2 positive control, Accuri C6 HTFC, 96-well
# Experimental: as §4
# BJ fibroblast cells were analyzed by flow cytometry on an Accuri C6 flow cytometer to determine the percentage of cells undergoing apoptosis (FIG. 2). Cells were seeded at a density of 5×10^3 cells per well in 96 well plate. Cells exposed to 2.5 mM H2O2 for 30 minutes or 62 μl EDTA pH 6.14 for 15-30 min. added to cells after removing media were used as a positive control for apoptosis. Cells were lifted and stained with 1 μl APOPercentage dye. The cells were then analyzed by flow cytometry. […] FIG. 2B includes a 1D Histogram of untreated and treated cells showing the fluorescence measured in the FL2-H channel, where gates were applied to delineate non-apoptotic and apoptotic cells. FIG. 2C is a bar graph showing the percentage of non-apoptotic and apoptotic cells that was measured within the untreated or treated (positive control) population of cells.
# as §5
# MCF-7 cells [13] = test: Mitochondrial membrane potential (MMP) JC-1 assay by flow cytometry; type: cell-based; settings: 2 μM JC-1, 100 mM H2O2 positive control, Accuri C6 HTFC, 96-well
# Experimental: as §7
# In FIG. […] Data was analyzed using FlowJo version 7.6.5 software. Cells were seeded at a density of 5×10^3 cells per well in a 96-well plate, the following day cells were left untreated (red) or treated with 100 mM H2O2 as a positive control (blue) for MMP disruption. DU145 cells were stained with a final concentration of 2 μM JC-1 dye (representative image). Cells were lifted with EDTA and analyzed by flow cytometry.
# HeLa cells [14] = test: APOPercentage apoptosis assay by flow cytometry; type: cell-based; settings: APOPercentage dye, 2.5 mM H2O2 positive control, Accuri C6 HTFC, 96-well
# Experimental: as §4
# Untreated and treated HeLa cells were also analyzed by flow cytometry on an Accuri C6 flow cytometer to determine the percentage of cells undergoing apoptosis (FIG. 4). Cells were seeded at a density of 5×10^3 cells per well in 96 well plate. Cells treated with 2.5 mM H2O2 for 30 minutes or 62 μl EDTA pH 6.14 for 15-30 min. added to cells after removing media were used as a positive control for apoptosis. Cells were lifted and stained with […] dye. The cells were then analyzed by flow cytometry. […] FIG. 4C is a bar graph showing the percentage of non-apoptotic and apoptotic cells within the untreated or treated population of cells.
# as §5
# Cells were seeded at a density of 5×10^3 cells per well in a 96-well plate. Following day, cells were treated with 2.5 mM H2O2 for 30 min. or 62 μl EDTA pH 6.14 for 15-30 min. added to cells after removing media as a positive control for apoptosis for 15-30 min. Cells were lifted with EDTA and stained with […] and analyzed by flow cytometry. […] 1D Histogram of untreated (blue) and treated (red) cells measuring fluorescence in the FL2-H channel and applying gates to delineate Non-apoptotic (blue) and Apoptotic (red) cells (FIG. 5B). […]
# DU145 cells [15] = test: Mitochondrial membrane potential (MMP) JC-1 assay by flow cytometry; type: cell-based; settings: 2 μM JC-1, 100 mM H2O2 positive control, Accuri C6 HTFC, 96-well
# Experimental: as §7
# In FIGS. 7A-B, DU145 Cells unstained (blue), untreated (red) or treated (green) were analyzed by flow cytometry on an Accuri C6 to determine the percentage of cells with disrupted MMP. Cells were seeded at a density of 5×10^3 cells per well in 96-well plate. Following day media was removed from cells and replaced with 50 μl EDTA as a positive control for MMP disruption for 60 min. Cells were lifted with EDTA and stained with a final concentration of 2 μM JC-1 dye and analyzed by flow cytometry. Separation of unstained (blue), untreated (red) and treated (green) cells based on FL2-H and FL-1-H profile (A). 1D Histogram of unstained (blue), untreated (red) and treated (green) cells measuring fluorescence in the FL2-H channel (B).
# In FIG. 8, DU145 and MCF-7 Cells were analyzed by flow cytometry on a BD LSRFortessa HTS to determine the level of MMP in cells. Data was analyzed using FlowJo version 7.6.5 software. […] Cells were lifted with EDTA and analyzed by flow cytometry.
Structure (SMILES),"effect of cell lifting chemical on untreated cells (membrane, apoptosis) (BJ, MCF-7 and HeLa cells)",Time to lift with EDTA (HeLa cells [1]) [min],Time to lift with EDTA (BJ cells) [min],Time to lift with EDTA (DU145 cells [2]) [min],Time to lift with EDTA (MCF-7 cells [3]) [min],Time to lift with EDTA (HT1080 cells [4]) [min],Time to lift with EDTA (BT20 cells [5]) [min],Percent cells stained with DCFDA in treated positive control (MCF-7 cells [6]) [%],Percent cells stained in positive control (MCF-7 cells [7]) [%],Percent cells stained in positive control (DU145 cells [8]) [%],Percent cells stained in positive control (HT1080 cells [9]) [%],Percent cells having JC-1 green in treated positive control (HeLa cells [10]) [%],Percent cells stained with DCFDA in treated positive control (BT20 cells [11]) [%],Percent cells stained with DCFDA in treated positive control (HeLa cells [12]) [%],Percent cells stained in positive control (BJ fibroblast cells) [%],Percent cells having JC-1 green in treated positive control (MCF-7 cells [13]) [%],Percent cells stained in positive control (HeLa cells [14]) [%],Percent cells having JC-1 green in treated positive control (DU145 cells [15]) [%]
"O=C(O)CN(CCN(CC(=O)O)CC(=O)O)CC(=O)O [EDTA, ethylenediaminetetraacetic acid]",did not induce unwanted apoptosis in untreated cells,30 to 45,30 to 50,20 to 30,15 to 20,20 to 30,40 to 60,–,–,–,–,–,–,–,–,–,–,–
OO [H2O2],–,–,–,–,–,–,–,90,85,90,95,90,95,90,90,95,90,90
